Test systems include KM12 colon; PC-3 prostate; NCI-H522 lung; A498 renal; UACC-257 melanoma; MCF7 breast; DU-145 prostate; UACC-62 melanoma; OVCAR-3 ovarian; SK-MEL-2 melanoma.
Experiment in all cases: NCI tumour cell line growth inhibition, 48 h

Experimental findings from PubChem BioAssay (NCI) are described below.

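Interpolation was linear, between the two tested concentrations surrounding the appropriate level; five concentrations were tested over 48 hours in 96-well plates. GI50 is the concentration that inhibits growth by half. TGI: total growth inhibition.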

`Cc1ccc(S(=O)(=O)N2CCCSCC2)cc1`: the TGI with KM12 colon, with PC-3 prostate, in the test with NCI-H522 lung, with A498 renal, with UACC-257 melanoma and with MCF7 breast was greater than 100 µM in each case. In addition, the TGI with DU-145 prostate was greater than 100 µM.

As for `Cc1ccc2c(c1)-c1nc(N)c(C#N)c(-c3ccccc3)c1CCS2(=O)=O`, the TGI in the test with UACC-62 melanoma was greater than 100 µM; in the test with KM12 colon, greater than 100 µM; in the test with PC-3 prostate, greater than 100 µM; with NCI-H522 lung it was greater than 100 µM; in the test with A498 renal it was 98.9 µM; with OVCAR-3 ovarian it was greater than 100 µM. Further, the TGI with UACC-257 melanoma, in the test on SK-MEL-2 melanoma and in the test on DU-145 prostate was greater than 100 µM each time.

`CC(=O)OCC1OC(n2c(-c3ccc(C)cc3)cc(-c3ccccc3)c(C#N)c2=S)C(OC(C)=O)C(OC(C)=O)C1OC(C)=O` (stereo not drawn): the TGI in the test with UACC-62 melanoma, in the test on KM12 colon, with PC-3 prostate, in the test on NCI-H522 lung, in the test with A498 renal and in the test with OVCAR-3 ovarian was greater than 100 µM each time. Besides, the TGI in the test on MCF7 breast and with DU-145 prostate was greater than 100 µM in each case.

Take `COc1cc(CNNC(N)=S)cc(OC)c1OC`: the TGI in the test with KM12 colon, with PC-3 prostate, in the test on NCI-H522 lung, in the test with A498 renal, with OVCAR-3 ovarian and in the test with UACC-257 melanoma was greater than 100 µM throughout. Moreover, the TGI with MCF7 breast and in the test on DU-145 prostate was greater than 100 µM each time.

`Cc1cc(S(=O)(=O)Nc2nc3ccccc3c(=O)n2N)c(S)cc1Cl`: the TGI in the test on UACC-62 melanoma is 49.2 µM; in the test on KM12 colon, greater than 100 µM; in the test on PC-3 prostate it was greater than 100 µM; in the test with NCI-H522 lung, 50.7 µM; with OVCAR-3 ovarian, greater than 100 µM; in the test with UACC-257 melanoma it was greater than 100 µM. Besides, the TGI with SK-MEL-2 melanoma, in the test on MCF7 breast and in the test on DU-145 prostate was greater than 100 µM throughout. In the test on NCI-H522 lung, the GI50 is 19 µM.

Turning to `O=C1c2ccccc2C(=O)N1CC(O)COc1cccc2ccccc12` (stereo not drawn), the TGI in the test with UACC-62 melanoma, with PC-3 prostate, in the test with NCI-H522 lung, in the test with A498 renal, in the test on OVCAR-3 ovarian and with UACC-257 melanoma was greater than 100 µM each time. The TGI in the test on MCF7 breast and with DU-145 prostate was greater than 100 µM in each case.

Consider `Cn1c2ccccc2c(=O)c2cccc(C(=O)NC(CCC(N)=O)C(=O)O)c21` (stereo not drawn), for which the TGI in the test on UACC-62 melanoma, in the test with KM12 colon, in the test on PC-3 prostate, with A498 renal, in the test with OVCAR-3 ovarian and in the test on UACC-257 melanoma was greater than 100 µM in each case. Further, the TGI in the test on SK-MEL-2 melanoma, in the test on MCF7 breast and in the test on DU-145 prostate was greater than 100 µM throughout.

As to `O=C(NCCCCCCNC(=O)c1cc(-c2ccccc2)nc2ccccc12)c1cc(-c2ccccc2)nc2ccccc12`, the TGI in the test on UACC-62 melanoma, in the test on PC-3 prostate, with NCI-H522 lung, in the test on A498 renal, in the test on OVCAR-3 ovarian and in the test on UACC-257 melanoma was greater than 100 µM throughout. For the same molecule, the TGI in the test with MCF7 breast and with DU-145 prostate was greater than 100 µM throughout.

In the case of `COc1cc(/C=c2\sc3n(c2=O)C(c2ccc(Cl)cc2)C2=C(CCCC2C)N=3)cc(OC)c1OC` (stereo not drawn), the TGI in the test with UACC-62 melanoma, in the test with KM12 colon, in the test with PC-3 prostate, with A498 renal, in the test on UACC-257 melanoma and in the test on SK-MEL-2 melanoma was greater than 100 µM throughout. Besides, the TGI with MCF7 breast and with DU-145 prostate was greater than 100 µM each time.

For the molecule `CCOC(=O)c1ccc(N=c2sc3ccccc3nc2Nc2ccc(C(=O)OCC)cc2)cc1`, the TGI in the test on UACC-62 melanoma was greater than 100 µM; in the test with KM12 colon it was greater than 100 µM; with PC-3 prostate, greater than 100 µM; in the test on NCI-H522 lung, 77.6 µM; in the test with A498 renal, greater than 100 µM; with UACC-257 melanoma it was greater than 100 µM. Also, the TGI in the test with SK-MEL-2 melanoma and in the test on DU-145 prostate was greater than 100 µM in each case.

For the molecule `C(=C\c1ccco1)/c1cccc(/C=C/c2ccco2)n1`, the TGI in the test with UACC-62 melanoma, with KM12 colon, in the test with NCI-H522 lung, in the test with A498 renal, in the test on OVCAR-3 ovarian and in the test on UACC-257 melanoma was greater than 50 µM throughout. Moreover, the TGI in the test on MCF7 breast and with DU-145 prostate was greater than 50 µM throughout.

On to `N/C(=N\N=C\c1ccc2c(c1)OCCO2)NO`, for which the TGI is greater than 34.4 µM with UACC-62 melanoma; greater than 100 µM in the test on KM12 colon; 42.1 µM in the test on NCI-H522 lung; greater than 100 µM in the test on A498 renal; 16.2 µM with OVCAR-3 ovarian; greater than 61.2 µM in the test with UACC-257 melanoma. The TGI in the test with SK-MEL-2 melanoma is 70.4 µM; in the test on MCF7 breast it was greater than 82.4 µM.

For `C=C1CCC([N+](=O)[O-])[C@](C)(N=O)CC[C@@H]2C1CC2(C)C` (stereo partly drawn), the TGI in the test with KM12 colon is 65.5 µM; in the test with PC-3 prostate, greater than 100 µM; in the test on NCI-H522 lung, 49.1 µM; in the test on OVCAR-3 ovarian, 56.3 µM; in the test on UACC-257 melanoma it was 46.2 µM; in the test on MCF7 breast, 39.6 µM. The same molecule had a TGI in the test with DU-145 prostate greater than 100 µM.

With `CCOC(=O)NC(Nc1ccc(C(=O)OCC)cc1)(C(F)(F)F)C(F)(F)F`, the TGI in the test with UACC-62 melanoma, in the test with KM12 colon, in the test with PC-3 prostate, in the test on NCI-H522 lung, with A498 renal and in the test with OVCAR-3 ovarian was greater than 100 µM in each case. Moreover, the TGI with MCF7 breast and in the test on DU-145 prostate was greater than 100 µM in each case.

Take `Cn1c(-c2cccc([N+](=O)[O-])c2)[n+](C)c2ccccc21`: the TGI with UACC-62 melanoma, in the test with KM12 colon, in the test with PC-3 prostate, with A498 renal, in the test on OVCAR-3 ovarian and in the test with UACC-257 melanoma was greater than 100 µM throughout. The TGI in the test on SK-MEL-2 melanoma, in the test with MCF7 breast and in the test on DU-145 prostate was greater than 100 µM each time.
